# Reference: US11903907B2, “Soluble honokiol derivatives” (TAIPEI MEDICAL UNIVERSITY, priority 2017, dated 2024)
# Key:
# [1] = test system: middle cerebral artery occlusion (MCAO) embolic stroke; assay: MCAO embolic stroke in mice: infarct volume and brain edema from TTC-stained brain sections; format: in vivo
# Procedure: (§1) Coronal sections of 2,3,5-triphenyltetrazolium chloride (TTC)-stained brains were taken after middle cerebral artery occlusion (MCAO) in the vehicle group treated with an isovolumetric solvent (normal saline, intravenous [i.v.]), and groups treated with HP-TMU (0.25, 0.5 and 1 mg/kg, i.v.) or honokiol (0.129, 0.258 and 0.516 mg/kg, i.v.; the doses of honokiol were adjusted by the ratio of the molecular weight of honokiol to HP-TMU (266.33/514.22)) after 30 min-embolic occlusion. The densitometric analyses for the measurement of infarct volume and brain edema were performed after treatment with HP-TMU or honokiol against embolic stroke in mice. Bleeding time was measured 10 min after the i.v. administration of normal saline (isovolumetric control) or HP-TMU (0.5 and 1 mg/kg, i.v.) for 30 min.
# (§2) In addition, MCAO-induced cerebral edema in the ischemic hemisphere was reduced by the treatment of 1 mg/kg HP-TMU (FIG. 1C). […] On the other hand, increased risk of hemorrhage is a major side effect of anti-stroke treatments. To evaluate HP-TMU in this aspect, we used the mouse tail transection model as an index of hemostasis.
# [2] = test system: mouse tail transection model (hemostasis); assay: Bleeding time, mouse tail transection model; format: in vivo, mice; conditions: 0.5 and 1 mg/kg i.v.; measured 10 min after administration
# Procedure: as §1, §2
# [3] = test system: middle cerebral artery occlusion (MCAO); assay: Neurobehavioral functions after MCAO: neurological severity scoring and rotarod test; format: in vivo, mice; conditions: 0.5 and 1 mg/kg i.v., 24 and 48 h after MCAO, P<0.05
# Procedure: Mice were subjected to middle cerebral artery occlusion (MCAO) surgery for 30 min, and then treated with the isovolumetric vehicle control (normal saline, intravenous [i.v.]) or HP-TMU (0.25, 0.5 and 1 mg/kg, i.v.) or honokiol (0.129, 0.258 and 0.516 mg/kg, i.v.). Assays of neurobehavioral functions include neurological severity scoring and the rotarod test. Evaluations were performed before and 24 and 48 h after surgery.
# [4] = test system: middle cerebral artery occlusion (MCAO); assay: Long-term recovery after MCAO by neurological severity scoring, comparison with edaravone; format: in vivo, mice; conditions: 1 mg/kg i.v.; at 1, 2, and 7 days after surgery
# Procedure: Mice were subjected to middle cerebral artery occlusion (MCAO) surgery for 30 min, and then treated with the isovolumetric vehicle control (normal saline, intravenous [i.v.]) or HP-TMU (1 mg/kg, i.v.) or edaravone (3 mg/kg, i.v.). The therapeutic effects of HP-TMU on long-term recovery were evaluated by neurological severity scoring before or 1, 2, 7, 14, and 28 days after surgery.
# [5] = Plasma concentration of honokiol and pharmacokinetics after intravenous injection in rats; conditions: rat plasma, i.v.
# Procedure: Mean plasma concentrations of honokiol vs. time profile in five rats were measured after intravenous injection of HP-TMU or honokiol.
# The plasma concentrations of honokiol at different points are expressed as mean±SD, and the mean concentration-time curve is shown in FIG. 4A.
structure (smiles),measurement,setting,value
"C=CCc1ccc(OP(=O)(O)O)c(-c2ccc(OP(=O)([O-])[O-])c(CC=C)c2)c1.[Na+].[Na+] [HP-TMU, sodium 3′,5-diallyl-[1,1′-biphenyl]-2,4′-diyl bis(phosphate)]",MCAO-induced cerebral edema in the ischemic hemisphere,[1]; 1 mg/kg i.v.,reduced
same,infarct volume,"[1]; 0.5 and 1 mg/kg i.v. after 30 min-embolic occlusion, compared with solvent control group, P<0.05",significantly reduced the infarct volume
same,neuroprotective effects compared with honokiol,"[1]; HP-TMU 0.25, 0.5, 1 mg/kg i.v. vs honokiol 0.129, 0.258, 0.516 mg/kg i.v.",more potent neuroprotective effects than honokiol
same,bleeding time,[2],did not alter the bleeding time substantially
same,"neurobehavioral (neurological) deficit scores, 18-point scale",[3],significantly ameliorated these increased scores
same,decrease of rotarod duration,[3]; vs vehicle control,significant reversed
same,long-term recovery of neurological deficit,[4],significantly improved
same,half-life compared to honokiol,[5],prolonged half-life compared to honokiol
